Experiment [1] deals with T1, glucocorticoid receptor (Homo sapiens, UniProt P04150).
T1 sequence (P04150 524-777 limits assumed): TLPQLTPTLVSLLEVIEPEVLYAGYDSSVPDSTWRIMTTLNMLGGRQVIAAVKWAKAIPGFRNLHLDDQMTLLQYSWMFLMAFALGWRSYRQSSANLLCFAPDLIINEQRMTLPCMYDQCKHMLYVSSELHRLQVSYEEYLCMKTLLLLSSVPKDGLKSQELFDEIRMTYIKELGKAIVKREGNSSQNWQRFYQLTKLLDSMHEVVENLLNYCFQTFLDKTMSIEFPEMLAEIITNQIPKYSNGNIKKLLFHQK
The experiment can be described thus: GRE reporter gene test (Experiment Example 1), HEK293T cells transfected with pGL4.35 and p-Bind GR Vector. Type of experiment: cell-based. The following applies: for EC50: GRE reporter gene, HEK293T cells, 18-20 h incubation; for Emax: HEK-293T; for maximum agonistic effect (Emax): compared with dexamethasone, transfected HEK293T cells. On the procedure:
The compound of the present invention to be tested was formulated into a 10 mM solution with DMSO, and then subjected to 4-fold dilution at 10 concentration points using DMSO to obtain a 1000× mother liquor, with a final test concentration of 0.000038-10 μM.
(§1) HEK293T cells (ATCC) were plated in a 100 mm culture dish at a density of 6*10^6 cells/culture dish, and cultured for 16 h under the conditions of 37° C. and 5% CO2. Plasmids (pGL4.35 [luc2P/9XGAL4 UAS/Hygro], p-Bind GR Vector, Promega) and Lipofectamine® 3000 (Invitrogen) were mixed, added into the culture dish, and then incubated for 5-6 h under the conditions of 37° C. and 5% CO2.
In a 384-well plate (PerkinElmer), 25 nL of the compound mother liquor was added, and then HEK293T cells transfected with plasmids were added at a density of 18000 cells/well. The cells were incubated for 18-20 h under the conditions of 37° C. and 5% CO2.
After the incubation was ended, 25 μL of britelite plus luciferase assay reagent (PerkinElmer) was added, and then reading was performed using an Envision 2105 multiplate reader (PerkinElmer).
(§2) The activity was calculated using the following formula, % activity=100*(signal of compound well−average signal of negative control well)/(average signal of positive control well−average signal of negative control well). […] Fitting calculation of EC50 was performed on % activity and the logarithmic concentration of the compound using Graphpad 8.0, Y=Bottom+(Top−Bottom)/(1+10^((Log EC50−X)*HillSlope)), wherein Y is % activity, and X is the logarithmic concentration of the compound.
A general note: A reporter such as luciferase makes a cellular process visible.

The target of experiment [2] is T1, glucocorticoid receptor. Nature of the experiment: GRE reporter gene test (Experiment Example 2), HEK293T cells transfected with pGL4.35 and p-Bind GR Vector. Format: cell-based. The following applies: for Emax: HEK-293T; for EC50: GRE reporter gene, HEK293T cells, 18-20 h incubation; for maximum agonistic activity (Emax): compared with dexamethasone, transfected HEK293T cells. On the procedure: The compound of the present invention to be tested was formulated into a 1 mM solution with DMSO, and then subjected to 4-fold dilution at 10 concentration points using DMSO to obtain a 1000× mother liquor, with a final test concentration of 0.0000038-1 μM.
as §1
In a 384-well plate (PerkinElmer), 25 nL of the compound mother liquor was added, and then HEK293T cells transfected with plasmids were added at a density of 18000 cells/well (25 μL). The cells were incubated for 18-20 h under the conditions of 37° C. and 5% CO2.
After the incubation was ended, 25 μL of britelite plus luciferase assay reagent (PerkinElmer) was added, and then reading was performed using an Envision 2105 multimode reader (PerkinElmer).
as §2

One may read the EC50 as the concentration that produces a half-maximal response. A low value points to greater potency. Usually Emax stands for the size of the effect at its maximum, as opposed to the concentration needed.

On glucocorticoid receptor [1], `C[C@@H]1C[C@H]2[C@@H]3C[C@H](F)C4=CC(=O)C=C[C@]4(C)[C@@]3(F)[C@@H](O)C[C@]2(C)[C@@]1(OC(=O)/C=C/c1ccc(F)c(N)c1)C(=O)SCF` [E-3] yielded an EC50 of 1.2 nM. Also, the Emax at glucocorticoid receptor [1] (read-out: Emax) came to 97.2%.
Turning to `C[C@@H]1C[C@H]2[C@@H]3C[C@H](F)C4=CC(=O)C=C[C@]4(C)[C@@]3(F)[C@@H](O)C[C@]2(C)[C@@]1(OC(=O)c1ccccc1)C(=O)SCF` [H-1, (6S,8S,9R,10S,11S,13S,14S,16R,17R)-6,9-difluoro-17-((fluoromethyl)thio)carbonyl)-11-hydroxy-10,13,16-trimethyl-3-oxo-6,7,8,9,10,11,12,13,14,15,16,17-dodecahydro-3H-cyclopenta[a]phenanthren-17-yl benzoate], on glucocorticoid receptor [1], the EC50 was found to be 0.18 nM and the “maximum agonistic effect (Emax)” value is recorded as “superior to dexamethasone”. In addition, the Emax at glucocorticoid receptor [1] (read-out: Emax) was found to be 110%.
On to `C[C@@H]1C[C@H]2[C@@H]3C[C@H](F)C4=CC(=O)C=C[C@]4(C)[C@@]3(F)[C@@H](O)C[C@]2(C)[C@@]1(OC(=O)[C@H]1C[C@@H]1c1ccc(N)cc1)C(=O)SCF` [C-1], for which, at glucocorticoid receptor [1], the 50% effective concentration (EC50) came to 0.9 nM and the “maximum agonistic effect (Emax)” value was “superior to dexamethasone”. The Emax on glucocorticoid receptor [1] (read-out: Emax) is 102%.
As for `C[C@@H]1C[C@H]2[C@@H]3C[C@H](F)C4=CC(=O)C=C[C@]4(C)[C@@]3(F)[C@@H](O)C[C@]2(C)[C@@]1(OC(=O)c1ccnc(N)c1)C(=O)SCF` [P-1, (6S,8S,9R,10S,11S,13S,14S,16R,17R)-6,9-difluoro-17-(((fluoromethyl)thio)carbonyl)-11-hydroxy-10,13,16-trimethyl-3-oxo-6,7,8,9,10,11,12,13,14,15,16,17-dodecahydro-3H-cyclopenta[a]phenanthren-17-yl 2-aminoisonicotinate], the EC50 on glucocorticoid receptor [1] is 1.4 nM. Further, at glucocorticoid receptor [1] (read-out: Emax), the Emax was 91.2%.
For `C[C@@H]1C[C@H]2[C@@H]3C[C@H](F)C4=CC(=O)C=C[C@]4(C)[C@@]3(F)[C@@H](O)C[C@]2(C)[C@@]1(OC(=O)c1cc(N)co1)C(=O)SCF` [F-2, (6S,8S,9R,10S,11S,13S,14S,16R,17R)-6,9-difluoro-17-(((fluoromethyl)thio)carbonyl)-11-hydroxy-10,13,16-trimethyl-3-oxo-6,7,8,9,10,11,12,13,14,15,16,17-dodecahydro-3H-cyclopenta[a]phenanthren-17-yl 4-aminofuran-2-carboxylate], at glucocorticoid receptor [1], the EC50 turned out to be 1.2 nM and the “maximum agonistic effect (Emax)” value was “superior to dexamethasone”. Moreover, the Emax on glucocorticoid receptor [1] (read-out: Emax) worked out at 125%.
As for `C[C@@H]1C[C@H]2[C@@H]3C[C@H](F)C4=CC(=O)C=C[C@]4(C)[C@@]3(F)[C@@H](O)C[C@]2(C)[C@@]1(OC(=O)c1cccc(O)c1)C(=O)SCF` [B-1], on glucocorticoid receptor [1], the half-maximal effective concentration (EC50) was 0.19 nM and the “maximum agonistic effect (Emax)” value is recorded as “superior to dexamethasone”. In addition, at glucocorticoid receptor [1] (read-out: Emax), the Emax was 105%.
Consider `C[C@@H]1C[C@H]2[C@@H]3C[C@H](F)C4=CC(=O)C=C[C@]4(C)[C@@]3(F)[C@@H](O)C[C@]2(C)[C@@]1(OC(=O)c1ccc(F)c(N)c1)C(=O)OCF` [O-1, fluoromethyl (6S,8S,9R,10S,11S,13S,14S,16R,17R)-17-((3-amino-4-fluorobenzoyl)oxy)-6,9-difluoro-11-hydroxy-10,13,16-trimethyl-3-oxo-6,7,8,9,10,11,12,13,14,15,16,17-dodecahydro-3H-cyclopenta[a]phenanthrene-17-carboxylate], for which a half-maximal response at glucocorticoid receptor [1] (EC50) required 0.2 nM. For the same compound, the Emax at glucocorticoid receptor [1] (read-out: Emax) worked out at 87.3%.
As to `C[C@@H]1C[C@H]2[C@@H]3C[C@H](F)C4=CC(=O)C=C[C@]4(C)[C@@]3(F)[C@@H](O)C[C@]2(C)[C@@]1(OC(=O)c1ccc(F)cc1)C(=O)SCF` [H-5], at glucocorticoid receptor [1], the half-maximal effective concentration (EC50) was 0.16 nM and the “maximum agonistic effect (Emax)” value was “superior to dexamethasone”. Also, the maximal effect (Emax) at glucocorticoid receptor [1] (read-out: Emax) was found to be 107%.
As for `C[C@@H]1C[C@H]2[C@@H]3C[C@H](F)C4=CC(=O)C=C[C@]4(C)[C@@]3(F)[C@@H](O)C[C@]2(C)[C@@]1(OC(=O)c1ccc(O)cc1)C(=O)SCF` [B-13], a half-maximal response on glucocorticoid receptor [1] (EC50) required 0.27 nM. Further, on glucocorticoid receptor [1] (read-out: Emax), the maximal effect (Emax) was 100%.
For the compound `C[C@@H]1C[C@H]2[C@@H]3CCC4=CC(=O)C=C[C@]4(C)[C@@]3(F)[C@@H](O)C[C@]2(C)[C@@]1(O)C(=O)CO` [Dexamethasone, reference compound], the maximal response (Emax) at glucocorticoid receptor [1] came out at 100%; at glucocorticoid receptor [2], 98.3%.
In the case of `C[C@@H]1C[C@H]2[C@@H]3C[C@H](F)C4=CC(=O)C=C[C@]4(C)[C@@]3(F)[C@@H](O)C[C@]2(C)[C@@]1(OC(=O)c1ccco1)C(=O)SCCO` [F-21, (6S,8S,9R,10S,11S,13S,14S,16R,17R)-6,9-difluoro-11-hydroxy-17-((2-hydroxyethyl)thio)carbonyl-10,13,16-trimethyl-3-oxo-6,7,8,9,11,12,13,14,15,16,17-dodecahydro-3H-cyclopenta[a]phenanthren-17-yl furan-2-carboxylate], on glucocorticoid receptor [2], the midpoint of the response, the EC50, lay at 1.3 nM; the Emax worked out at 139%; the “maximum agonistic activity (Emax)” value is reported as “superior to dexamethasone”.
`C[C@@H]1C[C@H]2[C@@H]3C[C@H](F)C4=CC(=O)C=C[C@]4(C)[C@@]3(F)[C@@H](O)C[C@]2(C)[C@@]1(OC(=O)c1cc(CO)co1)C(=O)SCF` [F-9, (6S,8S,9R,10S,11S,13S,14S,16R,17R)-6,9-difluoro-17-(((fluoromethyl)thio)carbonyl)-11-hydroxy-10,13,16-trimethyl-3-oxo-6,7,8,9,10,11,12,13,14,15,16,17-dodecahydro-3H-cyclopenta[a]phenanthren-17-yl 4-(hydroxymethyl)furan-2-carboxylate]: at glucocorticoid receptor [2], the concentration giving a half-maximal response (EC50) came to 0.4 nM, the Emax was found to be 134% and the “maximum agonistic activity (Emax)” value was “superior to dexamethasone”.
On glucocorticoid receptor [1], `C[C@@H]1C[C@H]2[C@@H]3C[C@H](F)C4=CC(=O)C=C[C@]4(C)[C@@]3(F)[C@@H](O)C[C@]2(C)[C@@]1(OC(=O)c1ccc(F)c(N)c1)C(=O)OCCl` [O-3, chloromethyl (6S,8S,9R,10S,11S,13S,14S,16R,17R)-17-((3-amino-4-fluorobenzoyl)oxy)-6,9-difluoro-11-hydroxy-10,13,16-trimethyl-3-oxo-6,7,8,9,10,11,12,13,14,15,16,17-dodecahydro-3H-cyclopenta[a]phenanthrene-17-carboxylate] gave a concentration for a half-maximal effect (EC50) of 0.4 nM. On glucocorticoid receptor [1] (read-out: Emax), the Emax was 87.7%.
The compound `C[C@@H]1C[C@H]2[C@@H]3C[C@H](F)C4=CC(=O)C=C[C@]4(C)[C@@]3(F)[C@@H](O)C[C@]2(C)[C@@]1(OC(=O)c1ccccc1O)C(=O)SCF` [B-25] displayed an EC50 at glucocorticoid receptor [1] of 0.13 nM. For the same compound, at glucocorticoid receptor [1] (read-out: Emax), the Emax was determined as 85.6%.

These data come from patent US20260199497A1, “GLUCOCORTICOID RECEPTOR AGONIST AND CONJUGATE THEREOF” (priority 2023, published 2026).
